Source: publication PMC12254266, “Multicolored sequential resonance energy transfer for detection of simultaneous ligand binding at G protein-coupled receptors” (Nature Communications, 2025)
Values joined by “and” are separate entries in the source; they are usually repeats but may differ in a detail not shown here. Identical values can stand only once.

Columns and labels:
Nluc-FFA1 = biological target: T1, Nluc-FFA1 (Homo sapiens, UniProt O14842); assay: NanoBRET binding (saturation, competition, kinetics) at N terminal Nluc tagged FFA1; settings: technical duplicates; for Specific BRET (690/450)%: Figure 4Ci; for Specific BRET (540/450)%: Figure 4Cii
T1 construct: expressed in transfected cells
T1 sequence (O14842 whole entry): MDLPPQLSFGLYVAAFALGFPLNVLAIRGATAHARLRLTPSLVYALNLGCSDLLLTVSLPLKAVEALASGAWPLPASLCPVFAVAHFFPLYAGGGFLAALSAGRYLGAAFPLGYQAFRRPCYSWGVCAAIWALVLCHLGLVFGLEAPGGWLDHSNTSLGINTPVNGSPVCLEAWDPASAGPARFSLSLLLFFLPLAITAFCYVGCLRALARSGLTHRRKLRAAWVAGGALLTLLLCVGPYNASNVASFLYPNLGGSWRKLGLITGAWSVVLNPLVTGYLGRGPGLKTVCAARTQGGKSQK
Procedure: Nluc-FFA1 or FFA1-Nluc Flp-In T-REx 293 cells were plated at 50,000 cells per well in poly-D-lysine coated white 96-well plates. Cells were cultured for 24 h in the plate before medium was replaced with medium containing 100 ng/mL of doxycycline to induce receptor expression. After culturing for a further 24 h, medium was removed, cells were washed with HBSS and incubated in HBSS for 30 min. To start the assay, NanoGlo substrate (Promega, N1110) was added to the cells at a 1:800 final dilution and incubated for 10 min at 37 °C. For endpoint assays, including both saturation and competition binding, test ligands were then added, including both fluorescent and unlabelled competing ligands as indicated, and plates incubated for a further 5 min at 37 °C. NanoBRET was then quantified in a CLARIOstar microplate reader (BMG Labtech) by measuring luminescent emission with the monochrometer set for the Nluc donor at 450–60 nm, and acceptor luminescent emission 540–60 nm (NBD), 600–80 nm (Cy3.5) or 690–100 nm (SulfoCy5), depending on which fluorophore was being tested. The acceptor/donor BRET ratio was then taken as a measure of fluorophore binding. For kinetic on then off NanoBRET experiments plates were washed the same way and substrate was added to the same concentration. However, 10 min after substrate was added plates were inserted into the CLARIOstar microplate reader set to 25 °C to take repeated measurements of luminescent emission for both the donor and the acceptor fluorophore being used. After 5 min of background measurements, the indicated concentration of fluorescent ligand was added using the plate reader injector and luminescent emission was monitored for ~10 min before the reader was paused to manually add a high concentration of appropriate competing ligand to initiate dissociation. The plate was returned to the reader and luminescence measurements were continued for a further 30 min to monitor dissociation of the fluorescent ligand. For kinetic experiments using multiple concentrations of fluorescent ligand, cells were placed in the plate reader immediately after the addition of Nano-Glo substrate and luminescent measurements were taken. After 5 min, the reader was paused to add the indicated concentrations of fluorescent ligand, before measurements were continued. To set non-specific binding for kinetic experiments, the indicated competing ligand was added 5 min before the addition of the fluorescent ligand.

FFA1-Nluc = FFA1-Nluc (Homo sapiens, UniProt O14842); assay: DISCo-BRET (endpoint, spectra scan, kinetics) with TUG-2591 and TUG-2597 at C terminal Nluc tagged FFA1; type: binding; design: expressed in transfected cells; settings: for Specific BRET (540/450), % of control: Figure 4Bi, single replicate values (technical duplicate); for Specific BRET (690/540), % of control: technical duplicate
Sequence of FFA1-Nluc (O14842 whole entry): as above
Procedure: Nluc-FFA1 or FFA1-Nluc Flp-In T-REx 293 cells were plated at 50,000 cells per well in poly-D-lysine coated white 96-well plates. Cells were cultured for 24 h in the plate before medium was replaced with medium containing 100 ng/mL of doxycycline to induce receptor expression. After culturing for a further 24 h, culture medium was removed, cells washed with HBSS and incubated in HBSS for 30 min. For all DISCo-BRET formats Nano-Glo substrate was then added at a 1:800 final dilution and cells incubated for 10 min. Following substrate addition experimental set up different among the three formats: endpoint, spectra scan, and kinetics.
For endpoint experiments all fluorescent and unlabelled ligands were added to the cells and incubated for 5 min at 37 °C. Luminescent emission was then measured using a CLARIOstar microplate reader with monochromator set at 450–60 nm (Nluc), 540−60 nm (NBD) and 690–100 nm (SulfoCy5). BRET ratios were then calculated as either SulfoCy5 emission divided by NBD emission, SulfoCy5 emission divided by Nluc emission, or NBD emission divided by Nluc emission.
For spectra scan experiments all indicated fluorescent and unlabelled ligands were added to the cells and cells incubated for 5 min at 37 °C. Luminescence emissions were then measured from each well of the plate from 440 nm – 740 nm with a 5 nm resolution using a CLARIOstar microplate. Luminescent emission spectra were then normalised as a percentage of the maximal Nluc emission peak ( ~ 460 nm), then subtracted with the spectrum obtained in the presence of high concentrations of ligands competing for both binding sites to obtain specific BRET binding spectra.
In kinetic DISCo-BRET experiments plates were placed directly in a CLARIOstar plate reader set to 25 °C 10 min after Nano-Glo substrate addition. Luminescent measurements were then taken with three sequential measurements per well with the monochromator set to 450–60 nm (Nluc), 540 - 60 nm (NBD) and 690–100 nm (SulfoCy5) taken in 20 or 30 s intervals. After 5 min of background measurements, the plate reader was paused for the first indicated fluorescent ligand(s) addition, before immediately returning the plate to the reader to continue luminescence readings. After 5 min, the reader was again paused to add the second fluorescent ligand (association assays) or competing ligand(s) (dissociation assays), before immediately continuing the measurements for the indicated time. Non-specific control binding was obtained by adding the indicated competing ligand(s) 5 min prior to the addition of the first fluorescent ligand.

SMILES: Cc1cc(OCCCS(C)(=O)=O)cc(C)c1-c1cccc(COc2ccc3c(c2)OC[C@H]3CC(=O)O)c1 [TAK-875]
- Specific BRET (690/450)% (Nluc-FFA1; log[Ligand] -6): 10.18% and 12.73% and 3.99% and 7.92% and 4.81% and 6.50%
- Specific BRET (690/450)% (Nluc-FFA1; log[Ligand] -6.5): 32.21% and 35.14% and 21.21% and 27.75% and 22.79% and 22.32%
- Specific BRET (690/450)% (Nluc-FFA1; log[Ligand] -7): 65.25% and 65.98% and 70.04% and 73.07% and 59.65% and 56.69%
- Specific BRET (690/450)% (Nluc-FFA1; log[Ligand] -7.5): 85.12% and 83.85% and 95.80% and 94.83% and 87.89% and 88.68%
- Specific BRET (690/450)% (Nluc-FFA1; log[Ligand] -8): 89.18% and 88.01% and 105.30% and 110.61% and 94.39% and 90.53%
- Specific BRET (690/450)% (Nluc-FFA1; log[Ligand] -9): 97.11% and 97.99% and 104.48% and 114.53% and 100.63% and 97.67%
- Specific BRET (690/450)% (Nluc-FFA1; log[Ligand] -10): 87.86% and 92.46% and 110.54% and 109.16% and 102.75% and 97.62%
- Specific BRET (690/450)% (Nluc-FFA1; log[Ligand] -11): 100.29% and 99.71% and 99.72% and 100.28% and 98.52% and 101.48%
- Specific BRET (540/450)% (Nluc-FFA1; log[Ligand] -9): 172.87% and 190.47% and 142.88% and 120.34% and 106.26% and 112.65% and 111.64% and 106.85%
- Specific BRET (540/450)% (Nluc-FFA1; log[Ligand] -10): 149.59% and 142.25% and 115.93% and 128.15% and 104.61% and 106.65% and 101.74% and 108.27%
- Specific BRET (540/450)% (Nluc-FFA1; log[Ligand] -11): 103.21% and 96.79% and 95.91% and 104.09% and 99.52% and 100.48% and 105.48% and 94.52%
- Specific BRET (540/450), % of control (FFA1-Nluc; log[Ligand] -6): 467.51 % of control and 353.62 % of control and 390.67 % of control and 390.47 % of control and 245.96 % of control and 264.46 % of control and 322.48 % of control and 320.38 % of control
- Specific BRET (540/450), % of control (FFA1-Nluc; log[Ligand] -6.5): 416.30 % of control and 439.27 % of control and 347.06 % of control and 353.35 % of control and 259.50 % of control and 260.52 % of control and 247.59 % of control and 261.94 % of control
- Specific BRET (540/450), % of control (FFA1-Nluc; log[Ligand] -7): 359.13 % of control and 319.17 % of control and 300.41 % of control and 327.99 % of control and 232.12 % of control and 230.66 % of control and 238.32 % of control (2×)
- Specific BRET (540/450), % of control (FFA1-Nluc; log[Ligand] -7.5): 230.54 % of control and 249.60 % of control and 216.23 % of control and 242.80 % of control and 172.25 % of control and 154.77 % of control and 142.78 % of control and 178.30 % of control
- Specific BRET (540/450), % of control (FFA1-Nluc; log[Ligand] -8): 168.77 % of control and 177.73 % of control and 170.59 % of control and 182.76 % of control and 139.62 % of control and 128.26 % of control and 117.24 % of control and 129.48 % of control
- Specific BRET (540/450), % of control (FFA1-Nluc; log[Ligand] -9): 109.76 % of control and 130.42 % of control and 118.05 % of control and 144.22 % of control and 109.32 % of control and 101.46 % of control and 92.91 % of control and 104.81 % of control
- Specific BRET (690/540), % of control (FFA1-Nluc; log[Ligand] -9): 98.23 % of control
- Specific BRET (540/450), % of control (FFA1-Nluc; log[Ligand] -10): 110.45 % of control and 140.76 % of control and 99.39 % of control and 126.77 % of control and 105.68 % of control and 97.52 % of control and 91.86 % of control and 108.31 % of control
- Specific BRET (690/540), % of control (FFA1-Nluc; log[ligand] -8): 82.90 % of control
- 'bottom' of the IC50 curve, DISCo-BRET NBD/Nluc (FFA1-Nluc; percentage of binding obtained in the absence of competing ligand): 360%
- 'bottom' of the IC50 curve, DISCo-BRET SulfoCy5/NBD (FFA1-Nluc; percentage of binding obtained in the absence of competing ligand, 100 nM TUG-2591 and […] TUG-2597): -3.0%
